{"source": "patent US20240216412A1", "about": "“OXIDIZED NICOTINAMIDE ADENINE DINUCLEOTIDE (NAD+) PRECURSOR TREATMENT FOR HEART FAILURE ALLEVIATION INDEPENDENT OF MITOCHONDRIAL PROTEIN DEACETYLATION” (University of Washington, priority 2022, published 2024)", "key": {"[1]": {"tested_on": "retinol oxidation by SDRs", "test": "Retinoid measurements in heart tissue (LC-MS/MS)", "assay_type": "in vivo, mouse", "details": "TAC hearts, WT and Sirt3Ko mice", "excerpt": "Retinoid measurements. Analysis of all-trans-retinyl ester palmitate (RP), all-trans,-retinol (ROL) was done in collaboration with Dr. Nina Isoherranen laboratory using previously established methods (Czuba et al., 2020). RP, ROL were purchased from Toronto Research Chemicals (North York, ON), and retinyl ester palmitate-d4 (RP-d4) and all-trans-retinol-d6 (ROLd6) were purchased from Cambridge Isotopes (Andover, MA). Blank human serum (DC MASS SPECT GOLD MSG4000) for standard curve and quality control matrix was purchased from Golden West Diagnostics (Temecula, CA). Solvents for liquid chromatography tandem mass spectrometry (LC-MS/MS) were Optima LC-MS grade and purchased from Fisher Scientific (Pittsburgh, PA). […]\nRP and ROL concentrations were determined on an AB Sciex 5500 QTRAP mass spectrometer (AB Sciex, Foster City), coupled with an Agilent 1290 UHPLC (Agilent, Santa Clara, CA) using a Ascentis Express RP-amide column (2.1×150 mm, […]) and guard column (2.1×5 mm, 2.7 μm). […]\nRP and ROL were detected in positive ion mode atmospheric pressure chemical ionization (APCI) mode using selected reaction monitoring (SRM). […] The CE was 25 V, DP was 60 V, entrance potential was 10 V, and collision exit potential was 10 V. Peaks were integrated and quantified using MultiQuant 2.1.1 (AB Sciex, Foster City, CA). […]"}, "[2]": {"tested_on": "chronic pressure overload (TAC) induced heart failure in WT and Sirt3Ko mice", "test": "Survival, organ weight and histology (HW/TL, lung edema, fibrosis) after TAC", "assay_type": "in vivo, mouse", "protocol": "Mice randomly received either NR (500 mg/kg body weight) (Canto et al., 2012) or vehicle saline daily for eight-weeks. Representative M-mode images for the echocardiography can be found in FIGS. 1C and 1D. Four weeks of chronic pressure overload caused similar declines in left ventricular fractional shortening (FS %) in mice randomized to NR or vehicle groups for either WT or Sirt3Ko (FIGS. 1E and 1F). […] Similar to NR treated WT, cardiac hypertrophy, left ventricular cavity dilation, and lung edema were less severe in Sirt3Ko TAO mice that received NR treatment (FIGS. 1B-1J). All echocardiography parameters can be found in Table 1 below.\nTransverse aortic constriction. Male mice (3-4 months old) underwent transverse aortic constriction (TAC) or sham surgery. Briefly, mice were anesthetized with an IP injection of 130 mg/kg ketamine and 8.8 mg/kg xylazine in saline. Mice were intubated with 20 G cannula and ventilated 140 breaths per minute by small animal TOPO ventilator (Kent Scientific). The aortic arch was exposed via a left thoracotomy and by carefully separating the thymus. A constriction of the transverse aorta was generated by tying a 6-0 Ethilon ligature against a 27-gauge blunt needle around the aorta between the brachiocephalic and left common carotid arteries. Promptly the needle was removed and the chest and skin were closed by 5-0 polypropylene suture. The animal was removed from ventilation and kept on a heating blanket during recovery from anesthesia. SR buprenorphine (0.05 mg/kg) was administered subcutaneously for analgesia. Sham operated mice underwent all the same procedures as TAC mice excluding the constriction of the aorta. All mice were monitored every 12 h during the first 72 h post-surgery, followed by daily visits over the next 4 weeks.\nOrgan weight and histological assessment. Hearts from mice were harvested, rinsed briefly in 1×PBS, blotted dry, and weighed. Lungs from the same mice were harvested, weighed, then dried at 56 C. After 72 hours the lungs were weighed again. Heart weight (HW) and Lung weight (LW) was normalized to tibia length (TL) to assess changes in hypertrophic growth and lung edema, respectively. For histology, hearts were perfusion fixed with 10% neutral buffered formalin. Longitudinal sections of hearts were stained with Masson's Trichrome for assessment of fibrosis by the University of Washington Histology and Imaging Core."}, "RXRα": {"tested_on": "RXRα", "test": "Chromatin immunoprecipitation (ChIP) of RXRα at the Acadm promoter PPRE", "assay_type": "in vivo", "details": "ISO mouse hearts, NR", "protocol": "Chromatin immunoprecipitation (ChIP). The EZ ChIP kit (EMD Millipore catalog #17-371) was used according to the manufacturer's protocol. Briefly, heart tissue was cut into small pieces using a razor blade in a petri dish on ice. The cubed tissue was incubated in fixation solution (1% formaldehye) in a conical tube and rotated at room temperature for 15 minutes to crosslink proteins and chromatin. The reaction was stopped by adding 0.125M Glycine for 5 min at room temperature. The contents were homogenized with a hand-held tissue homogenizer for 45 seconds then pelleted by centrifugation for 3 minutes at 1,250×g at 4C. The supernatant was discarded and the pellet was resuspended in 10 ml ice-cold PBS wash buffer followed by centrifugation at 1,250×g for 3 minutes. This was wash step was repeated on ice. The supernatant was discarded and the pellet resuspended in 5 ml chromatin prep buffer and incubated on ice for 10 minutes. The resuspended pellet was homogenized on ice with a dounce homogenizer for 30 strokes and then contents transferred to new conical tube on ice. The suspension was centrifuged 3 minutes at 1,250×g at 4C then supernatant discarded. The pellet was resuspended in 1 ml Chip buffer and transferred to new centrifuge tube then incubated on ice for 10 minutes. […] Purified chromatin was analyzed on a 1% agarose gel to determine the shearing efficiency. […]"}, "[3]": {"details": "Sirt3Ko TAC mice, similar to NR treated WT"}}, "data": [{"smiles": "NC(=O)c1ccc[n+]([C@@H]2O[C@H](CO)[C@@H](O)[C@H]2O)c1", "note": "[NR, Nicotinamide riboside chloride]", "values": [{"measurement": "Retinol and retinylpalmitate accumulation (bottleneck in SDR reactions)", "setting": "[1]", "result": "removed the “bottleneck”"}, {"measurement": "Fibrosis (Masson's trichrome)", "setting": "[2]; Sirt3Ko TAC mice", "result": "decreased fibrosis"}, {"measurement": "Cardiac hypertrophy", "setting": "[2]; [3]", "result": "less severe"}, {"measurement": "Lung edema", "setting": "[2]; [3]", "result": "less severe"}, {"measurement": "Mortality (Kaplan-Meier survival curve analysis)", "setting": "[2]; WT and Sirt3Ko TAC mice, NR vs vehicle for eight weeks", "result": "no significant difference in mortality"}, {"measurement": "Binding occupancy of RXRα to the PPARα response element (PPRE) in the Acadm promoter", "setting": "RXRα", "result": "increased"}]}]}
